For one assay, the system named is hair papilla cells. Kind of assay: Hair papilla cell proliferation test by two-dimensional culture (Example 5). In kind it is cell-based, C57BL/6N mouse. Particulars: final concentration 0.1 wt %, cultured for 3 days; FIG. 18. The text has this:
Hair papilla cells transmit new hair growth signals to hair matrix cells via signaling substances to activate hair matrix cells, thereby controlling processes of new hair growth and hair elongation. Accordingly, the hair shaft growth promoting activity and the like of test substances can be evaluated from a proliferation rate of hair papilla cells. In this Example, the skin of the whisker region was taken from a C57BL/6N mouse and hair papillae were harvested from isolated whisker follicles under a stereo microscope. Six hair papillae were fixed to the bottom surface of a 60 mm-plastic petri dish (from Sumitomo Bakelite Co., Ltd.), and the primary culture was performed at 37° C. in the presence of 5% CO2 by using a hair papilla cell culture medium in which 2% FCS (fetal calf serum), 0.6% ITT (insulin-transferrin-triiodothyronine mixture), 1% BPE (bovine pituitary extract), and 0.6% Cyp (cyproterone solution) were added to a PCGM base medium. Afterwards, the medium was replaced every 2 to 3 days and subculturing was repeated about every two weeks. In this experiment, hair papilla cells at passage 3 or less were used. […] The number of cells after culturing for 3 days was counted by using a hemocytometer, and proliferation rates in test solution A and the test solution B were calculated relative to 100% for a proliferation rate in the negative control as 100%.

The test system of the next assay is C3H/He mice. The assay can be described thus: New hair growth promoting activity in telogen-phase mice after hair removal (Example 3). Particulars: 5 wt % in 50% ethanol, once/day 100 μl. It is filed as in vivo. The text has this:
The hair follicle that produces a hair shaft is the only organ known to repeat growth and regression over the entire life. Such regular growth and regression are divided into the anagen phase, the catagen phase, and the telogen phase of a hair cycle. The body hair of the back of C3H/He mice is bound to be in the telogen phase 45 to 95 days after birth, and thus an extremely long telogen phase-bound period is observed compared with common mice, such as C57BL/6N mice, whose hair cycle of the body hair of the back lasts about 21 days in total for the anagen phase, the catagen phase, and the telogen phase. […] Therefore, by using C3H/He mice at 45 to 90 days after birth, new hair growth promoting activity can be evaluated. […]
The application was performed for two groups (test solution-applied group and negative control group (50% ethanol-applied group)), where each group consisted of five mice. On the basis of new hair growth score criteria (Table 15) according to appearance changes in a portion of the applied region that leaves the telogen phase and enters a regeneration phase, the degree of new hair growth in the applied region was quantified (range of 1 to 10 in which new hair growth scores concerning two items are summed) over time on day 0, 4, 5, 6, 7, 10, 11, 12, 13, 14, 17, 18, 19, 20, and 21 after hair removal. […]

The test system of a further assay is C57BL/6N mice. The assay can be described thus: Hair shaft diameter of regrown body hair after hair pull-out (Example 2). It is filed as in vivo. Particulars: 1 wt % in 50% ethanol, once/day 100 μl, day 21 after the application; FIG. 15, P<0.01. The source says: In C57BL6/N mice, it is known that when body hair of the back is pulled out, hair cycles in the pulled-out region are forced to shift to the […], and as a result, the hair cycles in the pulled-out region are synchronized. Therefore, only hair in the anagen phase becomes observable by decreasing variations in hair cycles. Approximately 7 days after hair is pulled out, as a sign of the anagen phase, skin color changing into gray is observed as melanocytes in hair follicles start synthesizing melanin, in addition to growth of pigmented hair. Further, approximately 10 days after hair is pulled out, new hair growth is observed in the pulled-out region. […] Accordingly, hair growth activity can be evaluated from a viewpoint of an increase in hair shaft diameter by measuring the hair shaft diameter of body hair grown in the pulled-out region approximately 21 days after hair is pulled out. […]
The application was performed for two groups (test solution-applied group and negative control group (50% ethanol-applied group)), where each group consisted of six mice. […] About 20 hair shafts were collected from each mouse, and the hair shaft diameter was measured for 10 hair shafts randomly selected from 120 hair shafts in total collected from 6 mice of each group. […]

Turning to `OC1C(O)C(O)C(O)C(O)C1O` [D-chiro-inositol], the “Hair papilla cell proliferation rate vs negative control” value in the assay with hair papilla cells is “increased significantly”. Also, in the assay with C3H/He mice (FIG. 17, negative control day 9), the “Average timing of new hair growth (new hair growth score reached 1 or more), number of days after hair removal” value was found to be 4 days. Moreover, the “New hair growth score vs negative control group” value in the assay on C3H/He mice (day 21 after hair removal, FIG. 16, P<0.05) is “significantly higher”. Also, in the assay with C57BL/6N mice, the “Hair shaft diameter vs negative control group” value was “significantly larger”.

Values taken from US11534377B2, “Hair growth agent” (KOBAYASHI PHARMACEUTICAL CO., LTD., priority 2016, dated 2022).
